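Five compound concentrations were applied to cells in 96-well plates for 48 hours; endpoints were derived by simple linear interpolation of the resulting dose-response curve. GI50: concentration for 50% inhibition of growth.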 Activity calls are given as the source filed them. Cut-off read from the data, not from the text of the source: active = GI50 up to about 1.1 µM and inactive = higher.
Legend:
Experiment in all cases: DTP human tumour cell line panel, 48 h
SN12C = test system: SN12C
NCI-H226 = test system: NCI-H226
TK-10 = test system: TK-10
A549 = test system: A549
SR = test system: SR
SK-OV-3 = test system: SK-OV-3
SK-MEL-28 = test system: SK-MEL-28
CCRF-CEM = test system: CCRF-CEM
OVCAR-5 = test system: OVCAR-5
SF-268 = test system: SF-268
NCI/ADR-RES = test system: NCI/ADR-RES
UO-31 = test system: UO-31
IGROV-1 = test system: IGROV-1
MDA-N = test system: MDA-N
ACHN = test system: ACHN
HCT-116 = test system: HCT-116
UACC-257 = test system: UACC-257
HL-60 = test system: HL-60

| Structure (SMILES) | GI50 (SN12C) | GI50 (NCI-H226) | GI50 (TK-10) | GI50 (A549) | GI50 (SR) | GI50 (SK-OV-3) | GI50 (SK-MEL-28) | GI50 (CCRF-CEM) | GI50 (OVCAR-5) | GI50 (SF-268) | GI50 (NCI/ADR-RES) | GI50 (UO-31) | GI50 (IGROV-1) | GI50 (MDA-N) | GI50 (ACHN) | GI50 (HCT-116) | GI50 (UACC-257) | GI50 (HL-60) |
| --- | --- | --- | --- | --- | --- | --- | --- | --- | --- | --- | --- | --- | --- | --- | --- | --- | --- | --- |
| NC(Cc1ccccc1)C(=O)NC(Cc1ccccc1)NC(=O)C(Cc1c[nH]c2ccccc12)C(=O)O (centres undefined) | > 100 µM (inactive) | > 100 µM (inactive) | > 100 µM (inactive) | > 100 µM (inactive) | > 100 µM (inactive) | > 100 µM (inactive) | > 100 µM (inactive) | > 100 µM (inactive) | > 100 µM (inactive) | > 100 µM (inactive) | > 100 µM (inactive) | 51.9 µM (inactive) | > 100 µM (inactive) | > 100 µM (inactive) | > 100 µM (inactive) | > 100 µM (inactive) | > 100 µM (inactive) | > 100 µM (inactive) |
| COC(=O)N1CC2(CO)C3CC=C(C(=O)Nc4ccccc4Br)C2C1C3Br (centres undefined) | – | > 50 µM (inactive) | > 50 µM (inactive) | > 50 µM (inactive) | > 50 µM (inactive) | > 50 µM (inactive) | > 50 µM (inactive) | > 50 µM (inactive) | > 50 µM (inactive) | > 50 µM (inactive) | > 50 µM (inactive) | > 50 µM (inactive) | > 50 µM (inactive) | > 50 µM (inactive) | > 50 µM (inactive) | – | > 50 µM (inactive) | > 50 µM (inactive) |
| CCc1c2c([nH]c(=S)c1C#N)CCC2 | – | > 100 µM (inactive) | > 100 µM (inactive) | > 100 µM (inactive) | 74.5 µM (inactive) | > 100 µM (inactive) | > 100 µM (inactive) | 48.8 µM (inactive) | > 100 µM (inactive) | > 100 µM (inactive) | > 100 µM (inactive) | > 100 µM (inactive) | > 100 µM (inactive) | > 100 µM (inactive) | > 100 µM (inactive) | > 100 µM (inactive) | > 100 µM (inactive) | > 100 µM (inactive) |
| Cc1ccc2c(c1)C1(C)OC(C=CC1=O)O2 (centres undefined) | 0.308 µM (active) | 3.02 µM (inactive) | 1.4 µM (inactive) | 3.24 µM (inactive) | 0.106 µM (active) | 3.24 µM (inactive) | 0.586 µM (active) | 0.114 µM (active) | 1.85 µM (inactive) | 1.41 µM (inactive) | 0.0681 µM (active) | 1.14 µM (inactive) | 2.18 µM (inactive) | 0.18 µM (active) | 0.522 µM (active) | 0.204 µM (active) | 1.01 µM (active) | 0.104 µM (active) |
| c1ccc2c(c1)Sc1nccc3ccnc-2c13 | 39 µM (inactive) | 27.9 µM (inactive) | 12.4 µM (inactive) | – | 11.9 µM (inactive) | > 100 µM (inactive) | 36.9 µM (inactive) | 56.9 µM (inactive) | > 100 µM (inactive) | 18.7 µM (inactive) | 25.2 µM (inactive) | 7.5 µM (inactive) | 27.7 µM (inactive) | 57.3 µM (inactive) | 13.8 µM (inactive) | 27.4 µM (inactive) | 73.6 µM (inactive) | 27.8 µM (inactive) |
| O=C(OCCN1CCCCC1)C(c1ccccc1)C1(O)CCSCC1 (centres undefined) | > 100 µM (inactive) | > 100 µM (inactive) | > 100 µM (inactive) | > 100 µM (inactive) | > 100 µM (inactive) | > 100 µM (inactive) | > 100 µM (inactive) | > 100 µM (inactive) | > 100 µM (inactive) | > 100 µM (inactive) | > 100 µM (inactive) | > 100 µM (inactive) | > 100 µM (inactive) | > 100 µM (inactive) | > 100 µM (inactive) | > 100 µM (inactive) | > 100 µM (inactive) | > 100 µM (inactive) |

— ChEMBL document CHEMBL1201862, “PubChem BioAssay data set” (2004)
